In patent US11059860B2, “Biocidal peptide and preparation based thereon” (“VERTA RESEARCH-PRODUCTION COMPANY” LTD, priority 2017, dated 2021):
Where a SMILES comes first, the peptide text is derived from it. [ ]: non-standard residue; d: D form. Phe(2-Me) = Cc1ccccc1C[C@H](N)C(=O)O

Legend:
thymus cells = assay: Spontaneous proliferation of thymus cells (3H-thymidin capture); assay type: cell-based, murine; conditions: 72 hrs
spleen cells = assay: Spontaneous proliferation of spleen cells (3H-thymidin capture); assay type: cell-based, murine; conditions: for spontaneous proliferation of spleen cells (captured 3H-thymidin): 72 hrs
[1] = tested on: RAW 264.7 macrophage line cells; assay: NO production by RAW 264.7 macrophage line cells stimulated with LPS (Greiss test); assay type: cell-based
Procedure: Upon completion of incubation, the culture medium in all wells of the plate was replaced with 0.25 ml of fresh medium. […] Polymixin B (Calbiochem) (PMB) in the same concentrations was used as the positive control of the inhibition of the LPS effect. The prepared mixture was then added at 0.25 ml increments to the wells of the culture plate at least in two parallel experiments. A mixture of LPS and the culture medium was added to the control wells. The cells were cultivated for 24 hrs. in a CO2 incubator. NO production was measured based on the total nitrite level in the culture medium in the Greiss test by using a commercial reagent (Sigma) according to the manufacturer's specifications.

red blood cells = assay type: cell-based
Procedure: The mixture was then diluted with a phosphate (PBS) buffer (0.015 M Na2HPO4, 0.15 M NaCl, pH 7.4). Samples of peptides in specific concentrations in PBS were placed in wells of a 96-well plate, and a red cell suspension in PBS was added to the samples. The red cell concentration was 1%. PBS was used as the negative control (no hemolysis). The positive control (100% hemolysis) −0.1% triton X-100 in PBS. The plates were incubated for three hours at 37° C. under 5% CO2 and centrifuged. The supernatant was transferred to a clean plate. The intensity of the hemoglobin release from the destroyed red blood cells was determined on a tablet spectrophotometer “Victor-2” (Finland) at λ-450 nm. […] All measurements were made thrice.

[2] = tested on: type 2 herpes simplex virus, strain G (ATCC VR-734, USA); assay: Protective activity in lethal herpes infection caused in mice by vaginal infection; assay type: in vivo
[3] = tested on: spleen cells stimulated with LPS; assay type: cell-based, murine
[4] = stimulated with 0.04 ml of LPS, peptide 0.4 μg/ml
[5] = stimulated with 0.04 ml of LPS, peptide 2 μg/ml
[6] = stimulated with 0.04 ml of LPS, peptide 10 μg/ml
[7] = stimulated with 0.2 ml of LPS, peptide 0.4 μg/ml
[8] = stimulated with 0.2 ml of LPS, peptide 2 μg/ml
[9] = stimulated with 0.2 ml of LPS, peptide 10 μg/ml
[10] = mice, n = 15, applied once a day on days 1-5 post infection, followed 18 days

Compound | spontaneous proliferation of thymus cells (captured 3H-thymidin) (thymus cells; peptide 0.08 μg/ml) [imp/min] | spontaneous proliferation of thymus cells (captured 3H-thymidin) (thymus cells; peptide 0.4 μg/ml) [imp/min] | spontaneous proliferation of thymus cells (captured 3H-thymidin) (thymus cells; peptide 2 μg/ml) [imp/min] | spontaneous proliferation of thymus cells (captured 3H-thymidin) (thymus cells; peptide 10 μg/ml) [imp/min] | spontaneous proliferation of spleen cells (captured 3H-thymidin) (spleen cells; peptide 0.08 μg/ml) [imp/min] | spontaneous proliferation of spleen cells (captured 3H-thymidin) (spleen cells; peptide 0.4 μg/ml) [imp/min] | spontaneous proliferation of spleen cells (captured 3H-thymidin) (spleen cells; peptide 2 μg/ml) [imp/min] | spontaneous proliferation of spleen cells (captured 3H-thymidin) (spleen cells; peptide 10 μg/ml) [imp/min] | NO production inhibition [1, 4] [%] | NO production inhibition [1, 5] [%] | NO production inhibition [1, 6] [%] | NO production inhibition [1, 7] [%] | NO production inhibition [1, 8] [%] | NO production inhibition [1, 9] [%] | dose at which hemolysis was not induced (red blood cells) | further results
Polymixin B [PMB] | 255 ± 68 | 197 ± 10 | 197 ± 12 | 201 ± 66 | 1488 ± 497 | 1548 ± 140 | 2051 ± 167 | 2051 ± 456 | 44 | 85 | 94 | 11 | 62 | 98 |  | 
CC[C@H](C)[C@H](N)C(=O)N[C@@H](CC(C)C)C(=O)N1CCC[C@H]1C(=O)N[C@@H](Cc1ccccc1C)C(=O)N[C@@H](CCCCN)C(=O)N[C@@H](Cc1ccccc1C)C(=O)N1CCC[C@H]1C(=O)N[C@@H](Cc1ccccc1C)C(=O)N[C@@H](Cc1ccccc1C)C(=O)N1CCC[C@H]1C(=O)N[C@@H](Cc1ccccc1C)C(=O)N[C@@H](CCCNC(=N)N)C(=O)N[C@@H](CCCNC(=N)N)C(N)=O [Peptide 11, H-Ile-Leu-Pro-(2-Me)Phe-Lys-(2-Me)Phe-Pro-(2-Me)Phe-(2-Me)Phe-Pro-(2-Me) Phe-Arg-Arg-NH2] (H-ILP[Phe(2-Me)]K[Phe(2-Me)]P[Phe(2-Me)][Phe(2-Me)]P[Phe(2-Me)]RR-NH2) |  |  |  |  |  |  |  |  |  |  |  |  |  |  | exceeding 200 μg/ml | 
Nc1nc2c(ncn2COCCO)c(=O)[nH]1 [Acyclovir] |  |  |  |  |  |  |  |  |  |  |  |  |  |  |  | Number of Dead animals [2, 10]: 4; Number of Survived animals [2, 10]: 11; Mortality ([2]; mice, n = 15, followed 18 days): 26.7%; Increase in ALS ([2]; versus virus control group): 2.5
CC[C@H](C)[C@H](N)C(=O)N[C@@H](CC(C)C)C(=O)N1CCC[C@H]1C(=O)N[C@H](Cc1ccccc1)C(=O)N[C@@H](CCCCN)C(=O)N[C@H](Cc1ccccc1)C(=O)N1CCC[C@H]1C(=O)N[C@H](Cc1ccccc1)C(=O)N[C@H](Cc1ccccc1)C(=O)N1CCC[C@H]1C(=O)N[C@H](Cc1ccccc1)C(=O)N[C@@H](CCCNC(=N)N)C(=O)N[C@@H](CCCNC(=N)N)C(N)=O [Peptide 6, H-Ile-Leu-Pro-D-Phe-Lys-D-Phe-Pro-D-Phe-D-Phe-Pro-D-Phe-Arg-Arg-NH2] (H-ILP[dF]K[dF]P[dF][dF]P[dF]RR-NH2) | 306 ± 103 | 246 ± 48 | 298 ± 63 | 736 ± 161 | 1530 ± 510 | 1615 ± 248 | 1854 ± 236 | 3279 ± 177 | 0 | 1 | 8 | 1 | 10 | 7 | exceeding 200 μg/ml | effect on spontaneous proliferation of splenocytes (in words) (spleen cells; 2-10 μg/ml dose range): statistically significant enhancement of the spontaneous proliferation of splenocytes; effect on splenocyte proliferation stimulated with lipopolysaccharide (in words) [3]: inhibited the LPS effect; effect on NO production stimulated by LPS (in words) ([1]; 10-0.4 μg/ml doses): inhibited the NO production
